Experimental data from PubChem BioAssay (NCI).
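Method: 48-hour compound exposure of cells in 96-well plates, five concentrations, linear interpolation of endpoints. At the GI50, growth is halved. The concentration for full growth arrest is given as TGI.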

What was measured:
Test in all cases: NCI anticancer screen, dose series, 48 h
HCT-116 colon = system: HCT-116 colon
MCF7 breast = system: MCF7 breast
SF-539 CNS = system: SF-539 CNS
UACC-62 melanoma = system: UACC-62 melanoma
U251 CNS = system: U251 CNS
A549 NSCLC = system: A549 NSCLC
M14 melanoma = system: M14 melanoma
SR leukemia = system: SR leukemia
MOLT-4 leukemia = system: MOLT-4 leukemia
OVCAR-4 ovarian = system: OVCAR-4 ovarian
MALME-3M melanoma = system: MALME-3M melanoma
NCI-H460 lung = system: NCI-H460 lung
OVCAR-8 ovarian = system: OVCAR-8 ovarian
K-562 leukemia = system: K-562 leukemia
HOP-62 NSCLC = system: HOP-62 NSCLC
ACHN renal = system: ACHN renal
A498 renal = system: A498 renal
786-0 renal = system: 786-0 renal
RXF 393 renal = system: RXF 393 renal
CCRF-CEM leukemia = system: CCRF-CEM leukemia
NCI-H226 lung = system: NCI-H226 lung
SN12C renal = system: SN12C renal
HT29 colon = system: HT29 colon
SK-OV-3 ovarian = system: SK-OV-3 ovarian
RPMI-8226 leukemia = system: RPMI-8226 leukemia
T-47D breast = system: T-47D breast
SNB-19 CNS = system: SNB-19 CNS
KM12 colon = system: KM12 colon
BT-549 breast = system: BT-549 breast
HCT-15 colon = system: HCT-15 colon
OVCAR-3 ovarian = system: OVCAR-3 ovarian
NCI-H23 lung = system: NCI-H23 lung
SK-MEL-5 melanoma = system: SK-MEL-5 melanoma
NCI-H522 lung = system: NCI-H522 lung
UO-31 renal = system: UO-31 renal
HS 578T breast = system: HS 578T breast
PC-3 prostate = system: PC-3 prostate
LOX IMVI melanoma = system: LOX IMVI melanoma
HOP-92 NSCLC = system: HOP-92 NSCLC
COLO 205 colon = system: COLO 205 colon
SNB-75 CNS = system: SNB-75 CNS
OVCAR-5 ovarian = system: OVCAR-5 ovarian
CAKI-1 renal = system: CAKI-1 renal
HL-60(TB) leukemia = system: HL-60(TB) leukemia
MDA-MB-435 = system: MDA-MB-435
SK-MEL-28 melanoma = system: SK-MEL-28 melanoma
NCI/ADR-RES ovarian = system: NCI/ADR-RES ovarian
DU-145 prostate = system: DU-145 prostate
IGROV1 ovarian = system: IGROV1 ovarian
SF-295 CNS = system: SF-295 CNS
UACC-257 melanoma = system: UACC-257 melanoma
SW-620 colon = system: SW-620 colon
SK-MEL-2 melanoma = system: SK-MEL-2 melanoma
SF-268 CNS = system: SF-268 CNS
MDA-MB-231 breast = system: MDA-MB-231 breast
TK-10 renal = system: TK-10 renal
EKVX NSCLC = system: EKVX NSCLC
HCC-2998 colon = system: HCC-2998 colon

In the case of CCOC(=O)/C1=C(\C)N(c2ccc(C)cc2)C(=O)c2ccccc2C(=O)c2c(OC(C)=O)ccc(OC(C)=O)c21, the TGI (HCT-116 colon) is reported as 35.9 µM, the TGI (MCF7 breast) is reported as 97.7 µM and the TGI (SF-539 CNS) is reported as 69.1 µM. For the same molecule, the TGI (UACC-62 melanoma) was 42.1 µM, the TGI (U251 CNS) was 97.9 µM and the TGI (A549 NSCLC) was over 100 µM. It also gave a TGI (M14 melanoma) of 54.3 µM, a TGI (SR leukemia) of 35.7 µM and a TGI (MOLT-4 leukemia) of 21.4 µM. It also gave a TGI (OVCAR-4 ovarian) of 54.2 µM, a TGI (MALME-3M melanoma) of 72.6 µM and a TGI (NCI-H460 lung) of 47.8 µM. It also gave a TGI (OVCAR-8 ovarian) of over 100 µM, a TGI (K-562 leukemia) of 38.7 µM and a TGI (HOP-62 NSCLC) of 87.3 µM. For the same molecule, the TGI (ACHN renal) was 77.2 µM, the TGI (A498 renal) was over 100 µM and the TGI (786-0 renal) was over 100 µM. For the same molecule, the TGI (RXF 393 renal) was 92.9 µM, the TGI (CCRF-CEM leukemia) was 26.2 µM and the TGI (NCI-H226 lung) was 65.7 µM. It also gave a TGI (SN12C renal) of 50.5 µM, a TGI (HT29 colon) of 35.7 µM and a TGI (SK-OV-3 ovarian) of 70.9 µM. The TGI (RPMI-8226 leukemia) was 30.3 µM, the TGI (T-47D breast) was 76.5 µM and the TGI (SNB-19 CNS) was 90.1 µM. The TGI (KM12 colon) was 40.6 µM, the TGI (BT-549 breast) was 90.2 µM and the TGI (HCT-15 colon) was 43.9 µM. It also gave a TGI (OVCAR-3 ovarian) of 39.3 µM, a TGI (NCI-H23 lung) of 71.1 µM and a TGI (SK-MEL-5 melanoma) of over 100 µM. It also gave a TGI (NCI-H522 lung) of 74.1 µM, a TGI (UO-31 renal) of over 100 µM and a TGI (HS 578T breast) of 48.2 µM. For the same molecule, the TGI (PC-3 prostate) was over 100 µM, the TGI (LOX IMVI melanoma) was 41.7 µM and the TGI (HOP-92 NSCLC) was over 100 µM. It also gave a TGI (COLO 205 colon) of 26.3 µM, a TGI (SNB-75 CNS) of over 100 µM and a TGI (OVCAR-5 ovarian) of over 100 µM. The TGI (CAKI-1 renal) was 38.5 µM, the TGI (HL-60(TB) leukemia) was 54.4 µM and the TGI (MDA-MB-435) was 41.5 µM. The TGI (SK-MEL-28 melanoma) was 12.2 µM, the TGI (NCI/ADR-RES ovarian) was 53.9 µM and the TGI (DU-145 prostate) was over 100 µM. For the same molecule, the TGI (IGROV1 ovarian) was 36.6 µM, the TGI (SF-295 CNS) was 43.2 µM and the TGI (UACC-257 melanoma) was 80.7 µM. It also gave a TGI (SW-620 colon) of over 100 µM, a TGI (SK-MEL-2 melanoma) of 82.7 µM and a TGI (SF-268 CNS) of over 100 µM. The TGI (MDA-MB-231 breast) was 83.9 µM and the TGI (TK-10 renal) was 44.4 µM.

With Cc1cc(I)cc(CN(C)CCCN2CCOCC2)c1O the GI50 (HCT-116 colon) was 24 µM, the TGI (HCT-116 colon) was over 100 µM and the GI50 (MCF7 breast) was 32.7 µM. The TGI (MCF7 breast) was over 100 µM, the GI50 (SF-539 CNS) was 16.7 µM and the TGI (SF-539 CNS) was 39.4 µM. The GI50 (UACC-62 melanoma) was 13.1 µM, the TGI (UACC-62 melanoma) was 30.5 µM and the GI50 (U251 CNS) was 36.3 µM. It also gave a TGI (U251 CNS) of over 100 µM, a GI50 (A549 NSCLC) of 59.4 µM and a TGI (A549 NSCLC) of over 100 µM. It also gave a GI50 (M14 melanoma) of 16 µM, a TGI (M14 melanoma) of 32.3 µM and a GI50 (SR leukemia) of 19.6 µM. It also gave a TGI (SR leukemia) of 48 µM, a GI50 (MOLT-4 leukemia) of 30.2 µM and a TGI (MOLT-4 leukemia) of over 100 µM. It also gave a GI50 (EKVX NSCLC) of 72.4 µM, a TGI (EKVX NSCLC) of over 100 µM and a GI50 (OVCAR-4 ovarian) of 63.2 µM. The TGI (OVCAR-4 ovarian) was over 100 µM, the GI50 (MALME-3M melanoma) was 16.2 µM and the TGI (MALME-3M melanoma) was 32.9 µM. The GI50 (NCI-H460 lung) was 35.4 µM, the TGI (NCI-H460 lung) was over 100 µM and the GI50 (OVCAR-8 ovarian) was over 100 µM. It also gave a TGI (OVCAR-8 ovarian) of over 100 µM, a GI50 (K-562 leukemia) of 18 µM and a TGI (K-562 leukemia) of 39.5 µM. It also gave a GI50 (HOP-62 NSCLC) of 38.6 µM, a TGI (HOP-62 NSCLC) of over 100 µM and a GI50 (ACHN renal) of over 100 µM. For the same molecule, the TGI (ACHN renal) was over 100 µM, the GI50 (A498 renal) was 19.1 µM and the TGI (A498 renal) was 48.6 µM. It also gave a GI50 (786-0 renal) of 27.6 µM, a TGI (786-0 renal) of over 100 µM and a GI50 (RXF 393 renal) of 11.8 µM. It also gave a TGI (RXF 393 renal) of 38.2 µM, a GI50 (NCI-H226 lung) of 99.9 µM and a TGI (NCI-H226 lung) of over 100 µM. The GI50 (SN12C renal) was over 100 µM, the TGI (SN12C renal) was over 100 µM and the GI50 (HT29 colon) was 16.5 µM. For the same molecule, the TGI (HT29 colon) was 33.6 µM, the GI50 (SK-OV-3 ovarian) was 82.9 µM and the TGI (SK-OV-3 ovarian) was over 100 µM. The GI50 (RPMI-8226 leukemia) was 17.8 µM, the TGI (RPMI-8226 leukemia) was 46 µM and the GI50 (T-47D breast) was 29.1 µM. The TGI (T-47D breast) was over 100 µM, the GI50 (SNB-19 CNS) was 67.7 µM and the TGI (SNB-19 CNS) was over 100 µM. For the same molecule, the GI50 (KM12 colon) was 29.6 µM, the TGI (KM12 colon) was over 100 µM and the GI50 (BT-549 breast) was 13.9 µM. The TGI (BT-549 breast) was 85.5 µM, the GI50 (HCT-15 colon) was 29 µM and the TGI (HCT-15 colon) was over 100 µM. The GI50 (OVCAR-3 ovarian) was over 100 µM, the TGI (OVCAR-3 ovarian) was over 100 µM and the GI50 (NCI-H23 lung) was 72.3 µM. The TGI (NCI-H23 lung) was over 100 µM, the GI50 (SK-MEL-5 melanoma) was 15.5 µM and the TGI (SK-MEL-5 melanoma) was 28.9 µM. For the same molecule, the GI50 (UO-31 renal) was 22.1 µM, the TGI (UO-31 renal) was 94.4 µM and the GI50 (HS 578T breast) was 13.5 µM. The TGI (HS 578T breast) was over 100 µM, the GI50 (PC-3 prostate) was 42.9 µM and the TGI (PC-3 prostate) was over 100 µM. It also gave a GI50 (LOX IMVI melanoma) of 29.8 µM, a TGI (LOX IMVI melanoma) of over 100 µM and a GI50 (HOP-92 NSCLC) of 15.7 µM. It also gave a TGI (HOP-92 NSCLC) of 98.2 µM, a GI50 (COLO 205 colon) of 14.1 µM and a TGI (COLO 205 colon) of 29 µM. It also gave a GI50 (SNB-75 CNS) of 21 µM, a TGI (SNB-75 CNS) of 87.4 µM and a GI50 (OVCAR-5 ovarian) of 45.3 µM. The TGI (OVCAR-5 ovarian) was over 100 µM, the GI50 (CAKI-1 renal) was 29.4 µM and the TGI (CAKI-1 renal) was over 100 µM. For the same molecule, the GI50 (HL-60(TB) leukemia) was 27.7 µM, the TGI (HL-60(TB) leukemia) was 72 µM and the GI50 (MDA-MB-435) was 26 µM. It also gave a TGI (MDA-MB-435) of over 100 µM, a GI50 (SK-MEL-28 melanoma) of 17.4 µM and a TGI (SK-MEL-28 melanoma) of 32.3 µM. The GI50 (NCI/ADR-RES ovarian) was 67.5 µM, the TGI (NCI/ADR-RES ovarian) was over 100 µM and the GI50 (DU-145 prostate) was over 100 µM. The TGI (DU-145 prostate) was over 100 µM, the GI50 (HCC-2998 colon) was 35.4 µM and the TGI (HCC-2998 colon) was over 100 µM. For the same molecule, the GI50 (IGROV1 ovarian) was 20.7 µM, the TGI (IGROV1 ovarian) was 72.6 µM and the GI50 (SF-295 CNS) was 25.1 µM. The TGI (SF-295 CNS) was 74.8 µM, the GI50 (UACC-257 melanoma) was 21.6 µM and the TGI (UACC-257 melanoma) was 44.8 µM. The GI50 (SW-620 colon) was 33.5 µM, the TGI (SW-620 colon) was over 100 µM and the GI50 (SK-MEL-2 melanoma) was 19.6 µM. It also gave a TGI (SK-MEL-2 melanoma) of 38.5 µM, a GI50 (SF-268 CNS) of 38.3 µM and a TGI (SF-268 CNS) of over 100 µM. It also gave a GI50 (MDA-MB-231 breast) of 39.7 µM, a TGI (MDA-MB-231 breast) of over 100 µM and a GI50 (TK-10 renal) of 45.6 µM. It also gave a TGI (TK-10 renal) of over 100 µM.
